“And” between values parts separate entries of the source, which are not always exact repeats. Equal entries are not always repeated.
Details: Diaphragm manometer

[CH3][Sb]([CH3])[CH3] [trimethylstibine]
Liquid
Details | vapor or sublimation pressure
249.24 K | 0.9742 kPa and 0.9744 kPa
250.24 K | 1.042 kPa
251.23 K | 1.113 kPa and 1.112 kPa
252.21 K | 1.186 kPa
253.21 K | 1.265 kPa and 1.264 kPa
258.19 K | 1.73 kPa
263.24 K | 2.345 kPa and 2.343 kPa
268.3 K | 3.134 kPa and 3.136 kPa
273.35 K | 4.143 kPa
278.36 K | 5.398 kPa and 5.399 kPa and 5.395 kPa
283.33 K | 6.941 kPa and 6.94 kPa and 6.938 kPa
288.27 K | 8.822 kPa and 8.821 kPa
290.71 K | 9.9 kPa and 9.899 kPa
293.24 K | 11.13 kPa
296.22 K | 12.74 kPa and 12.73 kPa

[CH3][Sb]([CH3])[C](C)(C)C [tert-butyldimethylantimony]
Details | vapor or sublimation pressure
248.34 K, Crystal | 0.03829 kPa and 0.03817 kPa and 0.03826 kPa
253.33 K, Crystal | 0.05845 kPa and 0.05851 kPa and 0.05854 kPa
258.35 K, Crystal | 0.08805 kPa and 0.08784 kPa and 0.08807 kPa
263.35 K, Crystal | 0.1298 kPa and 0.1299 kPa
268.55 K, Crystal | 0.1898 kPa and 0.19 kPa
273.4 K, Crystal | 0.2687 kPa and 0.2685 kPa
278.29 K, Crystal | 0.374 kPa and 0.3741 kPa
283.32 K, Crystal | 0.5167 kPa and 0.5168 kPa and 0.5164 kPa
288.32 K, Liquid | 0.7023 kPa and 0.7022 kPa
293.29 K, Liquid | 0.9422 kPa and 0.9421 kPa and 0.942 kPa
298.29 K, Liquid | 1.251 kPa
303.28 K, Liquid | 1.642 kPa
308.27 K, Liquid | 2.131 kPa and 2.132 kPa
